In patent publication US12534469B2 (CHILDREN'S HOSPITAL MEDICAL CENTER, priority 2020, dated 2026):

Tests used:
Type in all cases: biochemical
FLT3 = target: T1, FLT3 (Homo sapiens, UniProt P36888); test: RBC HotSpot Kinase Assay, FLT3
T1 construct: purchased Reaction Biology (RBC HotSpot Kinase Assay)
T1 sequence (P36888 564-958 limits assumed): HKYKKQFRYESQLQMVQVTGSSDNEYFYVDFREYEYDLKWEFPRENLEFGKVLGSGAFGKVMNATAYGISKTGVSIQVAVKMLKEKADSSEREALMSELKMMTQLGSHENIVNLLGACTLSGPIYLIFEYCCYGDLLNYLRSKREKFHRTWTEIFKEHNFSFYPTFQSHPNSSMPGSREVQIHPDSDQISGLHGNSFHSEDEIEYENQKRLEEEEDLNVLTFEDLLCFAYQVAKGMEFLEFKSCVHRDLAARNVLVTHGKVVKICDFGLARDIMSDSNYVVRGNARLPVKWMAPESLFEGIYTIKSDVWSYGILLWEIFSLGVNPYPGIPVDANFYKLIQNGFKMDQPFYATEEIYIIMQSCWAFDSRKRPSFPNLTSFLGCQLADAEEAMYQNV
Excerpt: (§1) This assay uses the isolated kinase enzyme. This assay is very useful for determining competition of the inhibitor for ATP and/or substrates and for measuring the kinetics of enzyme inhibition. […] Unlike kinase binding assays that measure competition for ATP, the HotSpot Kinase Assay is a functional assay that measures catalytic activity; as such it measures relative functional potency regardless of the mechanism of enzyme inhibition. This assay uses the form of the various enzymes that are easiest to express, which may not necessarily be the form of the enzyme that exist in the cell. (Sometimes the carboxy terminus has been truncated to aid in expression, or, if it is a receptor kinase, the enzyme itself is isolated from the other parts of the receptor that are involved in regulating kinase activity.)
(§2) The reagent used was as follows: Base Reaction buffer; 20 mM Hepes (pH 7.5), 10 mM MgCl2, 1 mM EGTA, 0.01% Brij35, 0.02 mg/ml BSA, 0.1 mM Na3VO4, 2 mM DTT, 1% DMSO. Required cofactors were added individually to each kinase reaction.
(§3) The reaction procedure was as follows: • 1) Substrates were prepared in freshly prepared Reaction Buffer. • 2) Any required cofactors were delivered to the substrate solution above. • 3) Kinase was delivered into the substrate solution and gently mixed. • 4) Compounds were delivered in 100% DMSO into the kinase reaction mixture by Acoustic technology (Echo550; nanoliter range), followed by incubation for 20 min at room temp. • 5) ^33P-ATP was delivered into the reaction mixture to initiate the reaction. • 6) The mixture was incubated for 2 hours at room temperature. • 7) Kinase activity was detected by P81 filter-binding method.

IRAK4 = target: T2, IRAK4 (Homo sapiens, UniProt Q9NWZ3); test: RBC HotSpot Kinase Assay, IRAK4; parameters: purchased Reaction Biology (RBC HotSpot Kinase Assay)
T2 sequence (Q9NWZ3 1-460): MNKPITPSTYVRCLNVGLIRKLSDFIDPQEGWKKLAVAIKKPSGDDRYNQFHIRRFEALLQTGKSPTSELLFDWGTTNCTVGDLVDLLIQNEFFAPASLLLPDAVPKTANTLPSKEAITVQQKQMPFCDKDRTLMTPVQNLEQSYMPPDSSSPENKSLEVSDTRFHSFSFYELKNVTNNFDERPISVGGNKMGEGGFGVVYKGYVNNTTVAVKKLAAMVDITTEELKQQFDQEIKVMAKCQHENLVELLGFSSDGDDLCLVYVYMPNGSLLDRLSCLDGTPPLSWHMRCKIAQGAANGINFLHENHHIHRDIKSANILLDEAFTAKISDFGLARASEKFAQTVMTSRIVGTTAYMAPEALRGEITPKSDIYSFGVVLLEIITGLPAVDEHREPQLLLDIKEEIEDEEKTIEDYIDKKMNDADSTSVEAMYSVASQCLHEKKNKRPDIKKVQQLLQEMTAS
Excerpt: as §1, §2, §3

IRAK1 = target: T3, IRAK1 (Homo sapiens, UniProt P51617); test: RBC HotSpot Kinase Assay, IRAK1
T3 construct: purchased Reaction Biology (RBC HotSpot Kinase Assay)
Excerpt: as §1, §2, §3

T3 sequence (P51617 whole entry): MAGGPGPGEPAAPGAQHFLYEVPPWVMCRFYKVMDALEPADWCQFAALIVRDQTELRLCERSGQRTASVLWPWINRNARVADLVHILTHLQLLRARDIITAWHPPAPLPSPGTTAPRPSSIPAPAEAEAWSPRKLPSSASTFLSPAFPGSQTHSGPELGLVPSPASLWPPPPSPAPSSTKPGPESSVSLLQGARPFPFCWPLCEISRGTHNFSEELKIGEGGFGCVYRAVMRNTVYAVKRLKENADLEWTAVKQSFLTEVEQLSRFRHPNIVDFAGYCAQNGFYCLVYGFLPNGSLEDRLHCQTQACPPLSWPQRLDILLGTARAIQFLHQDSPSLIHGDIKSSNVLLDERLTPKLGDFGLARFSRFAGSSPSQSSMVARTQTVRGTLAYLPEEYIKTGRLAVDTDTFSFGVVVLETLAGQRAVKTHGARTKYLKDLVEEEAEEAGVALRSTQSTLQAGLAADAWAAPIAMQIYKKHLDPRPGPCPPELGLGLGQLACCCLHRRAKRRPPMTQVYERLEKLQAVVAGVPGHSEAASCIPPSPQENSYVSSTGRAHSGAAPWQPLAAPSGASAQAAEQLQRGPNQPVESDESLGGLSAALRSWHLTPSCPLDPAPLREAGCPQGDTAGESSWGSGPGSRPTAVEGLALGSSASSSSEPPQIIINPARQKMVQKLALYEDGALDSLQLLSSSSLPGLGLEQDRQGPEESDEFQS

Row | SMILES | IC50 (FLT3) [nM] | IC50 (IRAK4) [nM] | IC50 (IRAK1) [nM]
1 | F[C@H]1CNCC[C@@H]1Nc1cccc(-c2cnc3ccc(-c4cnn(C5CC5)c4)nn23)n1 [Compound 7, 6-(6-(1-cyclopropyl-1 H-pyrazol-4-yl)imidazo[1,2-b]pyridazin-3-yl)-N-((3S,4S)-3-fluoropiperidin-4-yl)pyridin-2-amine] | 4 | 52 | 284
2 | Cn1cc(-c2ccc3ncc(-c4cccc(N[C@@H]5CCCNC5)n4)n3n2)cn1 [Compound 15, (R)-6-(6-(1-methyl-1H-pyrazol-4-yl)imidazo[1,2-b]pyridazin-3-yl)-N-(piperidin-3-yl)pyridin-2-amine] | < 0.5 | 13 | 226
3 | FC(F)n1cc(-c2ccc3ncc(-c4cccc(N[C@@H]5CCCNC5)n4)n3n2)cn1 [Compound 16] | < 0.5 | 157 | 3060
4 | c1cc(N[C@@H]2CCCNC2)nc(-c2cnc3ccc(-c4cnn(C5CC5)c4)nn23)c1 [Compound 17, (R)-6-(6-(1-cyclopropyl-1 H-pyrazol-4-yl)imidazo[1,2-b]pyridazin-3-yl)-N-(piperidin-3-yl)pyridin-2-amine] | < 0.5 | 9 | 1820
5 | Cn1cc(-c2ccc3ncc(-c4cccc(NC5CNCC5(F)F)n4)n3n2)cn1 (stereo not drawn) [Compound 21, N-(4,4-difluoropyrrolidin-3-yl)-6-(6-(1-methyl-1H-pyrazol-4-yl)imidazo[1,2-b]pyridazin-3-yl)pyridin-2-amine] | 6 | 38 | 497
6 | FC1(F)CNCC1Nc1cccc(-c2cnc3ccc(-c4cnn(C5CC5)c4)nn23)n1 (stereo not drawn) [Compound 22, 6-(6-(1-cyclopropyl-1H-pyrazol-4-yl)imidazo[1,2-b]pyridazin-3-yl)-N-(4,4-difluoropyrrolidin-3-yl)pyridin-2-amine] | 6 | 44 | 678
7 | FC(F)n1cc(-c2ccc3ncc(-c4cccc(NC5CNCC5(F)F)n4)n3n2)cn1 (stereo not drawn) [Compound 23, 6-(6-(1-(difluoromethyl)-1H-pyrazol-4-yl)imidazo[1,2-b]pyridazin-3-yl)-N-(4,4-difluoropyrrolidin-3-yl)pyridin-2-amine] | 16 | 75 | 1150
8 | c1cc(NC2CCNC2)nc(-c2cnc3ccc(-c4cn[nH]c4)nn23)c1 (stereo not drawn) [Compound 26, 6-(6-(1H-pyrazol-4-yl)imidazo[1,2-b]pyridazin-3-yl)-N-(pyrrolidin-3-yl)pyridin-2-amine] | 0.9 | 20 | 114
9 | CC(C)n1cc(-c2ccc3ncc(-c4cccc(NC5CCNC5)n4)n3n2)cn1 (stereo not drawn) [Compound 27, 6-(6-(1-isopropyl-1H-pyrazol-4-yl)imidazo[1,2-b]pyridazin-3-yl)-N-(pyrrolidin-3-yl)pyridin-2-amine] | 5 | 609 | 1620

The remaining lines, values ahead:

Row | IC50 (FLT3) [nM] | IC50 (IRAK4) [nM] | IC50 (IRAK1) [nM] | SMILES
10 | 2 | 115 | 948 | FC(F)n1cc(-c2ccc3ncc(-c4cccc(N[C@H]5CNC[C@@H]5F)n4)n3n2)cn1 [Compound 2, 6-(6-(1-(difluoromethyl)-1 H-pyrazol-4-yl)imidazo[1,2-b]pyridazin-3-yl)-N-((3S,4S)-4-fluoropyrrolidin-3-yl)pyridin-2-amine]
11 | 1 | 71 | 449 | F[C@H]1CNC[C@@H]1Nc1cccc(-c2cnc3ccc(-c4cnn(C5CC5)c4)nn23)n1 [Compound 3, 6-(6-(1-cyclopropyl-1 H-pyrazol-4-yl)imidazo[1,2-b]pyridazin-3-yl)-N-((3S,4S)-4-fluoropyrrolidin-3-yl)pyridin-2-amine]
12 | 3 | 114 | 1360 | CC(C)(O)Cn1cc(-c2ccc3ncc(-c4cccc(N[C@H]5CNC[C@@H]5F)n4)n3n2)cn1 [Compound 4, 1-(4-(3-(6-(((3S,4S)-4-fluoropyrrolidin-3-yl)amino)pyridin-2-yl)imidazo[1,2-b]pyridazin-6-yl)-1 H-pyrazol-1-yl)-2-methylpropan-2-ol]
13 | 5 | 51 | 266 | Cn1cc(-c2ccc3ncc(-c4cccc(N[C@H]5CCNC[C@@H]5F)n4)n3n2)cn1 [Compound 5, N-((3S,4S)-3-fluoropiperidin-4-yl)-6-(6-(1-methyl-1H-pyrazol-4-yl)imidazo[1,2-b]pyridazin-3-yl)pyridin-2-amine]
14 | 4 | 62 | 296 | FC(F)n1cc(-c2ccc3ncc(-c4cccc(N[C@H]5CCNC[C@@H]5F)n4)n3n2)cn1 [Compound 6, 6-(6-(1-(difluoromethyl)-1 H-pyrazol-4-yl)imidazo[1,2-b]pyridazin-3-yl)-N-((3S,4S)-3-fluoropiperidin-4-yl)pyridin-2-amine]
15 | 8 | 586 | 704 | CC(C)(O)Cn1cc(-c2ccc3ncc(-c4cccc(N[C@H]5CCNC[C@@H]5F)n4)n3n2)cn1 [Compound 8, 1-(4-(3-(6-(((3S,4S)-3-fluoropiperidin-4-yl)amino)pyridin-2-yl)imidazo[1,2-b]pyridazin-6-yl)-1 H-pyrazol-1-yl)-2-methylpropan-2-ol]
16 | < 0.5 | 21 | 860 | Cn1cc(-c2ccc3ncc(-c4cccc(N[C@H]5CNC[C@@H]5C(F)(F)F)n4)n3n2)cn1 [Compound 11, 6-(6-(1-methyl-1 H-pyrazol-4-yl)imidazo[1,2-b]pyridazin-3-yl)-N-((3R,4S)-4-(trifluoromethyl)pyrrolidin-3-yl)pyridin-2-amine]
17 | 3 | 128 | 2060 | FC(F)n1cc(-c2ccc3ncc(-c4cccc(N[C@H]5CNC[C@@H]5C(F)(F)F)n4)n3n2)cn1 [Compound 12, 6-(6-(1-(difluoromethyl)-1 H-pyrazol-4-yl)imidazo[1,2-b]pyridazin-3-yl)-N-((3R,4S)-4-(trifluoromethyl)pyrrolidin-3-yl)pyridin-2-amine]
18 | 2 | 106 | 1840 | FC(F)(F)[C@H]1CNC[C@@H]1Nc1cccc(-c2cnc3ccc(-c4cnn(C5CC5)c4)nn23)n1 [Compound 13, 6-(6-(1-cyclopropyl-1 H-pyrazol-4-yl)imidazo[1,2-b]pyridazin-3-yl)-N-((3R,4S)-4-(trifluoromethyl)pyrrolidin-3-yl)pyridin-2-amine]
19 | 3 | 100 | 1850 | CC(C)(O)Cn1cc(-c2ccc3ncc(-c4cccc(N[C@H]5CNC[C@@H]5C(F)(F)F)n4)n3n2)cn1 [Compound 14, 2-methyl-1-(4-(3-(6-(((3R,4S)-4-(trifluoromethyl)pyrrolidin-3-yl)amino)pyridin-2-yl)imidazo[1,2-b]pyridazin-6-yl)-1 H-pyrazol-1-yl)propan-2-ol]
20 | 4 | 1410 | 2440 | CC(C)(O)Cn1cc(-c2ccc3ncc(-c4cccc(N[C@@H]5CCCNC5)n4)n3n2)cn1 [Compound 18, (R)-2-methyl-1-(4-(3-(6-(piperidin-3-ylamino)pyridin-2-yl)imidazo[1,2-b]pyridazin-6-yl)-1 H-pyrazol-1-yl)propan-2-ol]
21 | 17 | 261 | 1640 | CC(C)(O)Cn1cc(-c2ccc3ncc(-c4cccc(NC5CNCC5(F)F)n4)n3n2)cn1 (stereo not drawn) [Compound 24, 1-(4-(3-(6-((4,4-difluoropyrrolidin-3-yl)amino)pyridin-2-yl)imidazo[1,2-b]pyridazin-6-yl)-1H-pyrazol-1-yl)-2-methylpropan-2-ol]
